Assay results as given in ChEMBL document CHEMBL1131315, “Synthesis and anticonvulsant activity of 2(3H)-benzoxazolone and 2(3H)-benzothiazolone derivatives” (J Med Chem, 1998).
The source made the active and inactive calls. No cut-off for these calls is given here.

Assays:
[1] = The compound was tested for neurologic toxicity (rotarod) test for 4 hours in mice; no activity or no toxicity at 300 mg/kg; type: organism-based; design: dose 300 mg/kg; details: mouse, in vivo
[2] = tested on: Mus musculus; experiment: The compound was tested for anticonvulsant activity in Maximal electroshock seizure test (MES) for 4 hr in mice(ip); no activity or toxicity at 300 mg/kg; type: functional, organism-based; design: dose 300 mg/kg
[3] = tested on: Mus musculus; experiment: Anticonvulsant activity in subcutaneous pentylenetetrazole seizure test for 30 min in mice; No activity/toxicity at 300 mg/kg.; type: functional, organism-based; design: dose 300 mg/kg
[4] = tested on: Mus musculus; experiment: The anticonvulsant activity in subcutaneous pentylenetetrazole seizure test (sc Met) for 4 hr in mice; no activity or no toxicity at 300 mg/kg; type: functional, organism-based; design: dose 300 mg/kg
[5] = The compound was tested for neurologic toxicity (rotarod) test for 30 min in mice; active at 300 mg/kg; type: organism-based; design: dose 300 mg/kg; details: mouse, in vivo, 0.5 h
[6] = tested on: Mus musculus; experiment: Anticonvulsant activity in Maximal electroshock seizure test at 100 mg/kg i.p. in mice.; type: functional, organism-based; design: dose 100 mg/kg
[7] = (§1) The compound was determined for the dose (mg/kg) by rotarod test at the time of peak neurotoxic effect in mice on ip administration.; type: ADME, organism-based; details: mouse, in vivo
[8] = tested on: Mus musculus; experiment: Time of peak effect in mice following i.p. administration.; type: functional
[9] = tested on: Mus musculus; experiment: The compound was tested for anticonvulsant activity in Maximal electroshock seizure test for 30 min in mice(ip); active at 30 mg/kg; type: functional, organism-based; design: dose 30 mg/kg
[10] = tested on: Mus musculus; experiment: Inhibition of s.c. pentylenetetrazole induced seizure in mice following i.p. administration.; type: functional
[11] = tested on: Mus musculus; experiment: The compound was tested to inhibit 50% of induced maximal electroshock seizure in mice on ip administration.; type: functional
[12] = molecular target: Sigma non-opioid intracellular receptor 1 (Homo sapiens) (UniProt Q99720); experiment: Ratio between the Ki(nM)values of sigma-2 and sigma-1; type: functional
Chain of Sigma non-opioid intracellular receptor 1 (Homo sapiens) (Q99720 whole entry): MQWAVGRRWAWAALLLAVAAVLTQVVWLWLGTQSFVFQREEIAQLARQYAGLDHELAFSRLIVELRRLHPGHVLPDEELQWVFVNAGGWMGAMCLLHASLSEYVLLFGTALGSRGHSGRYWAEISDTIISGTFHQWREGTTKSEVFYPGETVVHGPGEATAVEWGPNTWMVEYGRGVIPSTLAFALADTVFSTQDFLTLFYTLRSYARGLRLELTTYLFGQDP

[13] = molecular target: Sigma 2 receptor; experiment: Affinity on sigma 2 receptor using [3H]- DTG as radioligand
[14] = The compound was tested for time of peak effect (TPE) in hours for its toxicity in mice on ip administration.; type: organism-based; details: mouse, in vivo
[15] = The compound was tested for neurologic toxicity (rotarod) test for 30 min in mice; active at 100 mg/kg; type: organism-based; design: dose 100 mg/kg; details: mouse, in vivo, 0.5 h
[16] = tested on: Mus musculus; experiment: The compound was tested for anticonvulsant activity in Maximal electroshock seizure test (MES) for 4 hr in mice(ip); active at 300 mg/kg; type: functional, organism-based; design: dose 300 mg/kg
[17] = The compound was tested for neurologic toxicity (rotarod) test for 4 hours in mice; active at 300 mg/kg; type: organism-based; design: dose 300 mg/kg; details: mouse, in vivo
[18] = The compound was tested for neurologic toxicity (rotarod) test for 30 min in mice; no activity or no toxicity at 300 mg/kg; type: organism-based; design: dose 300 mg/kg; details: mouse, in vivo, 0.5 h
[19] = tested on: Mus musculus; experiment: The compound was tested for anticonvulsant activity in subcutaneous pentylenetetrazole seizure test (sc Met) for 4 hr in mice; active at 300 mg/kg; type: functional, organism-based; design: dose 300 mg/kg
[20] = tested on: Mus musculus; experiment: The compound was tested for anticonvulsant activity in Maximal electroshock seizure test (MES) for 4 hr in mice(ip); active at 100 mg/kg; type: functional, organism-based; design: dose 100 mg/kg
[21] = tested on: Mus musculus; experiment: The compound was tested for anticonvulsant activity in subcutaneous pentylenetetrazole seizure test (sc Met) for 30 min in mice; active at 300 mg/kg; type: functional, organism-based; design: dose 300 mg/kg
[22] = tested on: Mus musculus; experiment: as §1; type: functional
[23] = tested on: Mus musculus; experiment: The compound was tested to inhibit 50% of induced maximal electroshock seizure in mice on ip administration; type: functional
[24] = tested on: Mus musculus; experiment: The compound was tested for anticonvulsant activity in subcutaneous pentylenetetrazole seizure test (sc Met) for 30 min in mice; active at 100 mg/kg; type: functional, organism-based; design: dose 100 mg/kg

Row | Compound | Rotarod toxicity [1] | MES [2] | scMet [3] | scMet [4] | MES [6] | TD50 [7] | Activity [8] | ED50 [10] | Ratio [12] | Ki [13] | Toxicity [14] | Rotarod toxicity [15] | MES [16] | Rotarod toxicity [17] | other results
1 | O=c1[nH]c2ccccc2o1 [BENZOXAZOLINONE] | active at 300 mg/kg | No activity or toxicity at 300 mg/kg | No activity or no toxicity at 300 mg/kg | No activity or no toxicity at 300 mg/kg | No activity or toxicity at 300 mg/kg |  |  |  |  |  |  |  |  |  | Rotarod toxicity [5]: active at 300 mg/kg
2 | CCC(=O)c1ccc2c(c1)sc(=O)n2CCN1CCCC1 | active at 100 mg/kg | active at 30 mg/kg | No activity or no toxicity at 300 mg/kg | No activity or no toxicity at 300 mg/kg |  | 48.4 mg/kg | 0.25 h | > 80 mg/kg | 1.6 | 919 nM | 0.25 h | active at 100 mg/kg |  |  | MES [9]: active at 30 mg/kg; ED50 [11]: 13.9 mg/kg
3 | CN(C)CCn1c(=O)oc2cc(C(=O)c3ccccc3)ccc21 |  |  | No activity or no toxicity at 300 mg/kg | No activity or no toxicity at 300 mg/kg | active at 300 mg/kg | 99 mg/kg | 0.25 h | > 120 mg/kg | > 27 | > 10000 nM | 0.25 h |  | active at 300 mg/kg | active at 300 mg/kg | ED50 [11]: 84.4 mg/kg; Rotarod toxicity [18]: active at 300 mg/kg
4 | CCCc1ccc2nc(O)sc2c1 |  |  |  |  | active at 100 mg/kg |  |  |  |  |  |  | active at 100 mg/kg |  | active at 100 mg/kg | scMet [19]: active at 300 mg/kg; MES [20]: active at 100 mg/kg; scMet [21]: active at 300 mg/kg
5 | O=C(c1ccccc1)c1ccc2nc(O)oc2c1 | No activity or no toxicity at 300 mg/kg | No activity or toxicity at 300 mg/kg | No activity or no toxicity at 300 mg/kg | No activity or no toxicity at 300 mg/kg | No activity or toxicity at 300 mg/kg |  |  |  |  |  |  |  |  |  | Rotarod toxicity [18]: No activity or no toxicity at 300 mg/kg
6 | CCCCC(=O)c1ccc2c(c1)oc(=O)n2CCCN1CCCCC1 | active at 100 mg/kg |  | No activity or no toxicity at 300 mg/kg | No activity or no toxicity at 300 mg/kg | active at 300 mg/kg |  |  |  |  |  |  | active at 100 mg/kg | active at 300 mg/kg |  | 
7 | O=c1oc2cc(Cc3ccccc3)ccc2n1CCN1CCOCC1 | active at 300 mg/kg |  | No activity or no toxicity at 300 mg/kg | No activity or no toxicity at 300 mg/kg | active at 100 mg/kg |  | 1 h | > 225 mg/kg | 7 | 515 nM | 1 h |  |  |  | MES [20]: active at 100 mg/kg; Rotarod toxicity [5]: active at 300 mg/kg; TD50 [22]: 194 mg/kg; ED50 [23]: 87 mg/kg
8 | CCC(=O)c1ccc2c(c1)sc(=O)n2CCN(C)C |  |  | No activity or no toxicity at 300 mg/kg | No activity or no toxicity at 300 mg/kg |  |  | 0.25 h | > 130 mg/kg |  |  | 0.25 h |  | active at 30 mg/kg | active at 300 mg/kg | MES [9]: active at 30 mg/kg; ED50 [11]: 21.8 mg/kg; Rotarod toxicity [5]: active at 300 mg/kg; TD50 [22]: 84.5 mg/kg
9 | CCCCC(=O)c1ccc2c(c1)sc(=O)n2CCN1CCOCC1 |  |  | No activity or no toxicity at 300 mg/kg | No activity or no toxicity at 300 mg/kg | active at 300 mg/kg |  |  |  |  |  |  | active at 100 mg/kg | active at 300 mg/kg | active at 100 mg/kg | 
10 | CCCc1ccc2nc(O)oc2c1 |  |  |  | active at 100 mg/kg | active at 300 mg/kg |  |  |  |  |  |  | active at 100 mg/kg | active at 300 mg/kg | active at 100 mg/kg | scMet [24]: active at 100 mg/kg
11 | CCCCCc1ccc2nc(O)oc2c1 | active at 100 mg/kg |  |  | active at 100 mg/kg | active at 300 mg/kg | 168 mg/kg | 0.5 h | 80.7 mg/kg |  |  | 1 h | active at 100 mg/kg | active at 300 mg/kg |  | scMet [24]: active at 100 mg/kg; ED50 [23]: 70.8 mg/kg
12 | CCC(=O)c1ccc2nc(O)sc2c1 | No activity or no toxicity at 300 mg/kg | No activity or toxicity at 300 mg/kg | No activity or no toxicity at 300 mg/kg | No activity or no toxicity at 300 mg/kg | No activity or toxicity at 300 mg/kg |  |  |  |  |  |  |  |  |  | Rotarod toxicity [18]: No activity or no toxicity at 300 mg/kg
13 | CCCCC(=O)c1ccc2c(c1)sc(=O)n2CCN(C)C | active at 100 mg/kg | active at 30 mg/kg | No activity or no toxicity at 300 mg/kg | No activity or no toxicity at 300 mg/kg |  | 61.5 mg/kg | 0.25 h | > 70 mg/kg | 7 | 4610 nM | 0.25 h | active at 100 mg/kg |  |  | MES [9]: active at 30 mg/kg; ED50 [11]: 27.3 mg/kg
14 | CCC(=O)c1ccc2c(c1)oc(=O)n2CCN1CCCCC1 | active at 100 mg/kg | No activity or toxicity at 300 mg/kg | No activity or no toxicity at 300 mg/kg | No activity or no toxicity at 300 mg/kg | No activity or toxicity at 300 mg/kg | 72.9 mg/kg | 0.25 h | > 100 mg/kg | 13 | 900 nM | 0.25 h | active at 100 mg/kg |  |  | ED50 [23]: 61 mg/kg
15 | CCCCC(=O)c1ccc2c(c1)oc(=O)n2CCN1CCCCC1 | active at 100 mg/kg | No activity or toxicity at 300 mg/kg | No activity or no toxicity at 300 mg/kg | No activity or no toxicity at 300 mg/kg | No activity or toxicity at 300 mg/kg |  |  |  |  |  |  | active at 100 mg/kg |  |  | 
16 | CCC(=O)c1ccc2c(c1)oc(=O)n2C | active at 100 mg/kg | No activity or toxicity at 300 mg/kg |  | active at 100 mg/kg | No activity or toxicity at 300 mg/kg |  |  |  |  |  |  | active at 100 mg/kg |  |  | scMet [24]: active at 100 mg/kg
